In US20080069898A1, “Topical Compositions Comprising Myrica Gale Oil” (priority 2004, published 2008):

Test system: skin
Test: 96 hour patch test of irritancy
Settings: 0.3% w/v in sterile water
Description: A 96 hour patch test was carried out to assess the irritancy or otherwise of Myrica gale oil when applied to the skin. For comparison, a solution of sodium dodecyl sulphate and white soft paraffin were also investigated.

For `CCCCCCCCCCCCOS(=O)(=O)[O-].[Na+]` [Sodium dodecyl sulphate (SDS), Sodium dodecyl sulphate], the “Mean Dryness (D)” value was 0.72, the “Mean Erythema (E)” value was 4.54 and the “Mean Irritation (E + D)” value was 5.26.
